Measured values as given in patent publication US8338599B2, “Compounds having a potentiating effect on the activity of ethionamide and uses thereof” (priority 2006, dated 2012).

Experiments:
EthR protein [1] = biological target: T1, EthR protein (Mycobacterium tuberculosis, UniProt P9WMC1); assay: Inhibition of interaction of EthR with its target DNA sequence (BIAcore); type: binding, M. tuberculosis H37Rv; settings: compound 3 μM, EthR 540 nM, 37° C.
Experimental: a) Measurement of the Activity of the Compounds on the Inhibition of Interaction of EthR with its Target DNA Sequence
The in vitro measurements of inhibition of binding of the EthR protein to its target DNA sequence were performed on a machine of BIAcore®2000 type (AB, Uppsala, Sweden).
The chips used are CM5 chips sold by the company GE Healthcare. Both the channels of a chip were activated with a solution containing 200 mM of EDC(N-ethyl-N′-(3-[…])carbodiimide) and 50 mM of NHS (N-hydroxysuccinimide). Next, streptavidin (500 ng/μl in a solution containing 10 mM of sodium acetate (pH 3.5) was injected over 12 minutes at a flow rate of 10 μl/minute. The 106-base-pair biotinylated DNA fragment corresponding to the ethA-R intergene region was deposited on one of the two channels of the chip at a rate of 200 ng/ml in order to obtain stable binding of streptavidin corresponding to 50 RU (resonance units). This DNA fragment was obtained by PCR using the chromosomal DNA of M. tuberculosis H37Rv as matrix and O-270: 5′-[…]-3′ (SEQ ID: No. 1) and O-271: 5′-biotin-[…]-3′ (SEQ ID: No. 2). The second channel was functionalized with a 113-base-pair biotinylated DNA fragment (fragment +14 to +127 of the bla gene of E. coli PCR-amplified using the following oligonucleotides: O-343: 5′-[…]-3′ (SEQ ID: No. 3) and O-344: 5′-biotin-[…]-3′ (SEQ ID: No. 4).
Measurement of the binding of the EthR protein to the immobilized DNA was performed at 37° C. in a reference buffer containing 10 mM of Tris-HCl (pH=7.5), 200 mM of NaCl, 0.1 mM of EDTA, 1 mM of DTT and 1% of DMSO at a flow rate of 20 μl/minute. The specific interaction (SI) of EthR with the 106-base-pair double-stranded DNA sequence, expressed in resonance units, corresponds to the difference in signal observed between the two channels.
For each inhibition measurement, the compounds of the invention are dissolved in the reference buffer at a concentration of 3 μM. The compounds of the invention are then incubated in the presence of the protein (540 nM) at 37° C. for 5 minutes, and each solution is then injected onto the two channels of the chip for 3 minutes at a flow rate of 20 μl/minute. The inhibition values are calculated at the end of the injection according to the following equation: […]
in which SIEthR corresponds to the value measured without ligand and SIEthR+ligand corresponds to the value measured in the presence of to ligand.

M. bovis BCG = type: cell-based, M. bovis BCG 1173P2; settings: from MIC of ETH alone (6 μM) and MIC of ETH with 25 μM compound
EthR protein [2] = biological target: T1, EthR protein; assay: In vitro measurement of the IC50 (EthR/DNA binding, BIAcore); design: species or system M. tuberculosis H37Rv; settings: six concentrations from 0.11 μM to 27 μM; read-out: IC50
Experimental: b) In Vitro Measurement of the IC50 of the Compounds of the Invention.
The in vitro measurement of this datum was performed according to the same principle as for the measurement of inhibition of the EthR/DNA binding using the BIAcore technique.
The specific interaction between EthR and the specific 106-bp DNA fragment was measured on a range of six concentrations of the compounds of the invention, this range extending from 0.11 μM to 27 μM. The IC50 values are then extrapolated from the sigmoid curves obtained.

T1 sequence (P9WMC1 whole entry, looked up): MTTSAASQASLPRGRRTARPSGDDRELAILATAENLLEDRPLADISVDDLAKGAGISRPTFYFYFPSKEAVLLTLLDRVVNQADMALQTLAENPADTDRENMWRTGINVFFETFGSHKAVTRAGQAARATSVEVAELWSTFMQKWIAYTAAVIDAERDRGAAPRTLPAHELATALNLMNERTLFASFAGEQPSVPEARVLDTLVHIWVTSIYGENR

Row | Structure (SMILES) | inhibition at 3 µM (EthR protein [1]) [%] | Potentiation % (M. bovis BCG) [%] | IC50 (EthR protein [2]) [µM]
1 | [N-]=[N+]=NCC(=O)N1CCC(c2nc(-c3ccsc3)no2)CC1 [Compound 3, 2-azido-1-[4-(3-thiophen-3-yl[1,2,4]oxadiazol-5-yl)piperid-1-yl]ethanone] | 14 | 500 | 
2 | [N-]=[N+]=NCC(=O)N1CCC(c2nc(-c3ccccc3)no2)CC1 [Compound 4, 2-azido-1-[4-(3-phenyl[1,2,4]oxadiazol-5-yl)piperid-1-yl]ethanone] | 15 | 500 | 
3 | COc1ccc2nc(-c3noc(C4CCN(C(=O)CN=[N+]=[N-])CC4)n3)sc2c1 [Compound 15] | 94 |  | 1.56
4 | C#CCCC(=O)N1CCC(c2nc(-c3cccs3)no2)CC1 [Compound 21, 1-[4-(3-thiophen-2-yl[1,2,4]oxadiazol-5-yl)piperid-1-yl]pent-4-yn-1-one] | 20 | 500 | 
5 | CC(C)CCC(=O)N1CCC(c2nc(-c3cccs3)no2)CC1 [Compound 25, 4-methyl-1-[4-(3-thiophen-2-yl[1,2,4]oxadiazol-5-yl)piperid-1-yl]pentan-1-one] | 70 | 500 | 0.91
6 | O=C(CCC(F)(F)F)N1CCC(c2nc(-c3cccs3)no2)CC1 [Compound 27, 4,4,4-trifluoro-1-[4-(3-thiophen-2-yl[1,2,4]oxadiazol-5-yl)piperid-1-yl]butan-1-one] | 96 | 500 | 1.57
7 | O=C(CCC1CCCC1)N1CCC(c2nc(-c3cccs3)no2)CC1 [Compound 34, 3-cyclopentyl-1-[4-(3-thiophen-2-yl[1,2,4]oxadiazol-5-yl)piperid-1-yl]propan-1-one] | 48 |  | 
8 | O=C(CC1CCCCC1)N1CCC(c2nc(-c3cccs3)no2)CC1 [Compound 37, 2-cyclohexyl-1-[4-(3-thiophen-2-yl[1,2,4]oxadiazol-5-yl)piperid-1-yl]ethanone] | 76 |  | 3.49
9 | O=C(CC1CC2CCC1C2)N1CCC(c2nc(-c3cccs3)no2)CC1 (stereo not drawn) [Compound 40, 2-bicyclo[2.2.1]hept-2-yl-1-[4-(3-thiophen-2-yl[1,2,4]oxadiazol-5-yl)piperid-1-yl]ethanone] | 59 |  | 
10 | O=C(Cc1ccccc1)N1CCC(c2nc(-c3cccs3)no2)CC1 [Compound 41, 2-phenyl-1-[4-(3-thiophen-2-yl[1,2,4]oxadiazol-5-yl)piperid-1-yl]ethanone] | 45 |  | 
11 | S=C(Nc1ccccc1)N1CCC(c2nc(-c3cccs3)no2)CC1 [Compound 49, 4-(3-thiophen-2-yl[1,2,4]oxadiazol-5-yl)piperidine-1-carbothioic acid phenylamide] | 86 |  | 1.34
12 | S=C(NC1CC1)N1CCC(c2nc(-c3cccs3)no2)CC1 [Compound 52, 4-(3-thiophen-2-yl[1,2,4]oxadiazol-5-yl)piperidine-1-carbothioic acid cyclopropylamide] | 61 |  | 
13 | O=S(=O)(Cc1ccccc1)N1CCC(c2nc(-c3cccs3)no2)CC1 [Compound 53, 1-phenylmethanesulfonyl-4-(3-thiophen-2-yl[1,2,4]oxadiazol-5-yl)piperidine] | 34 |  | 
14 | O=C(CC1CC1)N1CCC(c2nc(-c3cccc(N(Cc4ccccc4)Cc4ccccc4)c3)no2)CC1 [Compound 57, 2-cyclopropyl-1-{4-[3-(3-dibenzylaminophenyl)[1,2,4]oxadiazol-5-yl]piperid-1-yl}ethanone] | 46 |  | 
15 | O=C(Cc1cccs1)N1CCC(c2nc(-c3ccc(Br)s3)no2)CC1 [Compound 58, 1-{4-[3-(5-bromothiophen-2-yl)[1,2,4]oxadiazol-5-yl]piperid-1-yl}-2-thiophen-2-ylethanone] | 34 |  | 
16 | N#CCC(=O)N1CCC(c2nc(-c3ccc(Br)s3)no2)CC1 [Compound 59, 3-{4-[3-(5-bromothiophen-2-yl)[1,2,4]oxadiazol-5-yl]piperid-1-yl}-3-oxo-propionitrile] | 77 |  | 0.39
